# Laboratory results as given in patent US11213499B1, “Use of 3,3′-diselenodipropionic acid (DSePA) as an anticancer agent” (Secretary, Department of Atomic Energy, priority 2020, dated 2022).
# System: human K562 xenograft
# Assay: Anti-tumor effect in human K562 xenograft model
# Format: in vivo
# Conditions: for mortality: study period of 30 days
# Description: These xenografts representative of NSCLC and CML respectively are considered to be highly aggressive and resistant to chemotherapy treatment. Therefore, any new chemotherapy agent against these cancers is very much sought. For the experiment, a total of 12 mice bearing A549 or K562 tumors of volume in the range of ˜50 mm^3 were divided into two groups (I & II), each group comprising of six mice. […] The group II was administered DSePA daily dissolved in sterile saline through oral route at a dosage of 1 mg/Kg body weight. The tumor volume and body weight of mice from each group were monitored daily for a total period of 30 days from the day of start. The animals were also checked for mortality if any throughout the study period. The experiment in A549 tumor was repeated three times (n=18 for each group) and the experiment in K562 tumor was repeated two times (n=12 for each group). […] This is the first study to show the anticancer activity of DSePA per se using xenograft model of human lung cancer (A549) and human leukemia (K562) cells in mice. Discovery of the application of the anticancer activity of DSePA is a novel invention in context of its probable usage in treatment for lung and leukemia cancer. More specifically the invention proposes a treatment regime and route of administering DSePA to inhibit the growth of human NSCLC (A549) and CML (K562).
# For the optimization of the oral dosage of DSePA, a total of 24 mice bearing A549 or K562 xenograft of volume in the range of ˜50 mm^3 were divided into four groups (I-IV), each group comprising of six mice. […] The groups II, III and IV were administered DSePA dissolved in sterile saline through oral route at the dosage of 1, 2.5 and 5 mg/kg body weight respectively. The administration of DSePA was performed daily for 4 weeks. The tumor volume and body weight of mice from each group were monitored daily for a total period of 30 days from the day of start. The animals were also checked for mortality if any throughout the study period.
# Animal maintenance—All animal studies were approved by the Institutional Animal Ethics Committee. Animals were housed under standard conditions (20±2° C., 65-70% humidity, 12 h/12 h day/night cycle, balanced laboratory diet and tap water ad libitum.
# Xenograft tumor model-A549 and K562 tumor models were developed by Anticancer Drug Screening Facility of Advanced Centre for Treatment, Research and Education in Cancer (ACTREC), India. Briefly, Male/female NOD-SCID aged 6-7 weeks were housed in the laboratory animal facility of ACTREC. Donor mice carrying K562 or A549 xenografts were developed by injecting 2×10^6 cells in 100 μl of DMEM/RPMI, subcutaneously in their right flank. When tumors attained the size of approximately 2000 mm^3, the animals were sacrificed. Tumors were obtained and further cut into 2-3 mm fragments and implanted subcutaneously in the right flank of 6-7 weeks old recipient SCID mice. Tumors were allowed to grow to a size of approximately 50 mm^3 following which animals were divided into groups of six animals each for evaluation. A fresh DSePA solution was prepared by dissolution in sterile saline before each administration by intraperitoneal/oral route. The tumor efficacy of DSePA was determined by monitoring parameters like tumor volume and T/C. Tumors were assumed spherical and volume was calculated using following equations (1 & 2): […]
# Where d1 (mm) and d2 (mm) are diameters measured in two perpendicular planes. T/C is defined as the ratio of the mean tumor volume of DSePA treated groups with the mean tumor volume of control group on the day of observation.
# [1] = 1 mg/kg body weight daily oral, day 1
# [2] = 1 mg/kg body weight daily oral, day 5
# [3] = 1 mg/kg body weight daily oral, day 9
# [4] = 1 mg/kg body weight daily oral, day 12
# [5] = 1 mg/kg body weight daily oral, day 15
# [6] = 1 mg/kg body weight daily oral, day 18
# [7] = 1 mg/kg body weight daily oral, day 21
# [8] = 1 mg/kg body weight daily oral, day 24
# [9] = 1 mg/kg body weight daily oral, day 27
# [10] = 1 mg/kg body weight daily oral, day 32
# [11] = 2.5 mg/kg body weight daily oral, day 1
# [12] = 2.5 mg/kg body weight daily oral, day 5
# [13] = 2.5 mg/kg body weight daily oral, day 9
# [14] = 2.5 mg/kg body weight daily oral, day 12
# [15] = 2.5 mg/kg body weight daily oral, day 15
# [16] = 2.5 mg/kg body weight daily oral, day 18
# [17] = 2.5 mg/kg body weight daily oral, day 21
# [18] = 2.5 mg/kg body weight daily oral, day 24
# [19] = 2.5 mg/kg body weight daily oral, day 27
# [20] = 2.5 mg/kg body weight daily oral, day 32
# [21] = 5 mg/kg body weight daily oral, day 1
# [22] = 5 mg/kg body weight daily oral, day 5
# [23] = 5 mg/kg body weight daily oral, day 9
# [24] = 5 mg/kg body weight daily oral, day 12
# [25] = 5 mg/kg body weight daily oral, day 15
# [26] = 5 mg/kg body weight daily oral, day 18
# [27] = 5 mg/kg body weight daily oral, day 21
# [28] = 5 mg/kg body weight daily oral, day 24
# [29] = 5 mg/kg body weight daily oral, day 27
# [30] = 5 mg/kg body weight daily oral, day 32
compound,measurement,setting,value
"O=C(O)CC[Se][Se]CCC(=O)O [DSePA, 3,3′-diselenodipropionic acid]",tumor growth inhibition vs control,"1 mg/Kg body weight daily oral, two independent experiments",significantly (P<0.05) inhibited the growth
same,overall reduction (relative tumor volume vs tumor control),"1 mg/Kg orally daily, end of study period (30 days), n=12, P=0.011",~3.7 folds
same,mortality,"1 mg/Kg orally daily, two independent studies",did not show any mortality
same,% S (Survival),[1],100%
same,RTV (Relative Tumor Volume),[1],1
same,T/C (T (test)/C (control)),[1],1
same,% S (Survival),[2],100%
same,RTV (Relative Tumor Volume),[2],1.13
same,T/C (T (test)/C (control)),[2],0.80
same,% S (Survival),[3],100%
same,RTV (Relative Tumor Volume),[3],1.13
same,T/C (T (test)/C (control)),[3],0.79
same,% S (Survival),[4],100%
same,RTV (Relative Tumor Volume),[4],1.22
same,T/C (T (test)/C (control)),[4],0.48
same,% S (Survival),[5],100%
same,RTV (Relative Tumor Volume),[5],1.42
same,T/C (T (test)/C (control)),[5],0.37
same,% S (Survival),[6],100%
same,RTV (Relative Tumor Volume),[6],2.28
same,T/C (T (test)/C (control)),[6],0.38
same,% S (Survival),[7],100%
same,RTV (Relative Tumor Volume),[7],1.90
same,T/C (T (test)/C (control)),[7],0.33
same,% S (Survival),[8],100%
same,RTV (Relative Tumor Volume),[8],2.22
same,T/C (T (test)/C (control)),[8],0.24
same,% S (Survival),[9],100%
same,RTV (Relative Tumor Volume),[9],3.24
same,T/C (T (test)/C (control)),[9],0.32
same,% S (Survival),[10],100%
same,RTV (Relative Tumor Volume),[10],4.38
same,T/C (T (test)/C (control)),[10],0.36
same,% S (Survival),[11],100%
same,RTV (Relative Tumor Volume),[11],1
same,T/C (T (test)/C (control)),[11],1
same,% S (Survival),[12],100%
same,RTV (Relative Tumor Volume),[12],1.09
same,T/C (T (test)/C (control)),[12],0.76
same,% S (Survival),[13],100%
same,RTV (Relative Tumor Volume),[13],1.01
same,T/C (T (test)/C (control)),[13],0.70
same,% S (Survival),[14],100%
same,RTV (Relative Tumor Volume),[14],1.42
same,T/C (T (test)/C (control)),[14],0.56
same,% S (Survival),[15],100%
same,RTV (Relative Tumor Volume),[15],1.66
same,T/C (T (test)/C (control)),[15],0.43
same,% S (Survival),[16],100%
same,RTV (Relative Tumor Volume),[16],1.79
same,T/C (T (test)/C (control)),[16],0.30
same,% S (Survival),[17],100%
same,RTV (Relative Tumor Volume),[17],1.54
same,T/C (T (test)/C (control)),[17],0.26
same,% S (Survival),[18],100%
same,RTV (Relative Tumor Volume),[18],1.23
same,T/C (T (test)/C (control)),[18],0.13
same,% S (Survival),[19],100%
same,RTV (Relative Tumor Volume),[19],1.74
same,T/C (T (test)/C (control)),[19],0.17
same,% S (Survival),[20],100%
same,RTV (Relative Tumor Volume),[20],2.21
same,T/C (T (test)/C (control)),[20],0.18
same,% S (Survival),[21],100%
same,RTV (Relative Tumor Volume),[21],1
same,T/C (T (test)/C (control)),[21],1
same,% S (Survival),[22],100%
same,RTV (Relative Tumor Volume),[22],1.04
same,T/C (T (test)/C (control)),[22],0.73
same,% S (Survival),[23],100%
same,RTV (Relative Tumor Volume),[23],1.05
same,T/C (T (test)/C (control)),[23],0.73
same,% S (Survival),[24],100%
same,RTV (Relative Tumor Volume),[24],1.32
same,T/C (T (test)/C (control)),[24],0.52
same,% S (Survival),[25],100%
same,RTV (Relative Tumor Volume),[25],1.11
same,T/C (T (test)/C (control)),[25],0.29
same,% S (Survival),[26],100%
same,RTV (Relative Tumor Volume),[26],1.29
same,T/C (T (test)/C (control)),[26],0.22
same,% S (Survival),[27],100%
same,RTV (Relative Tumor Volume),[27],1.22
same,T/C (T (test)/C (control)),[27],0.21
same,% S (Survival),[28],100%
same,RTV (Relative Tumor Volume),[28],1.25
same,T/C (T (test)/C (control)),[28],0.13
same,% S (Survival),[29],100%
same,RTV (Relative Tumor Volume),[29],1.73
same,T/C (T (test)/C (control)),[29],0.17
same,% S (Survival),[30],100%
same,RTV (Relative Tumor Volume),[30],2.45
same,T/C (T (test)/C (control)),[30],0.20
same,tumor growth inhibition vs control,"dosage optimization, 1 mg/kg body weight daily oral for 4 weeks",significantly (P<0.05) inhibited the growth of K562 tumor from the day 15 onwards
same,tumor growth inhibition vs control,"dosage optimization, 2.5 mg/kg body weight daily oral for 4 weeks",significantly (P<0.05) inhibited the growth of K562 tumor from the day 15 onwards
same,tumor growth inhibition vs control,"dosage optimization, 5 mg/kg body weight daily oral for 4 weeks",significantly (P<0.05) inhibited the growth of K562 tumor from the day 15 onwards
same,mortality,"dosage optimization, 1, 2.5 and 5 mg/kg daily oral",did not show any mortality
same,T/C achieved,"leukemia model, 1 mg/kg body weight daily oral",≤ 0.42
same,minimum dosage to achieve optimum efficacy,oral daily,1 mg/kg body weight
